From PMC3047509 (Journal of the American Chemical Society, 2011)
Bridge positions count the residues as written; N and C are the ends. Peptide text beside a SMILES is read from it.

Columns and labels:
[1] = target: CBP BRD (Homo sapiens, UniProt Q92793); assay: competition fluorescent polarization; format: binding; conditions: FP competition assay; relative to linear p53-K382ac
[2] = system: endogenous p53 and p21 proteins in HCT116 cells; assay: western blot of endogenous p53 and p21 after doxorubicin; format: cell-based, human; conditions: peptide 12 hours, then doxorubicin 300 ng/ml for 24 hrs
[3] = system: p53-induced p21 activation; assay: p53-based p21-luciferase assay; format: cell-based, human; conditions: HCT116 cells, doxorubicin treatment

Sequence of CBP BRD (Q92793 1085-1192 limits assumed): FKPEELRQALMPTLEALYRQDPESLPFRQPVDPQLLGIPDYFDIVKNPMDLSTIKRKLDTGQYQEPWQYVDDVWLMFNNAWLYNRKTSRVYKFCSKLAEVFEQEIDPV

| SMILES | fold increase in binding affinity over linear p53-K382ac peptide [1] [fold] | protein level of endogenous p53 and p21 [2] | inhibition of p53-induced p21 luciferase activation [3] |
| --- | --- | --- | --- |
| CC(=O)NCCCC[C@@H]1NC(=O)[C@H](CCCCN)NC(=O)[C@H](Cc2c[nH]cn2)NC(=O)[C@@H](N)CSSC[C@@H](C(=O)N[C@@H](Cc2ccccc2)C(=O)N[C@@H](CCCCN)C(N)=O)NC(=O)[C@H](CC(C)C)NC1=O [compound 1] (H-CHKK(Ac)LCFK-NH2; disulfide 1-6; N-terminus and C-terminus assumed) | 9 |  |  |
| CC(=O)NCCCC[C@@H]1NC(=O)[C@H](CCCCN)NC(=O)[C@H](Cc2c[nH]c3ccccc23)NC(=O)[C@@H](N)CSSC[C@@H](C(=O)N[C@@H](Cc2ccccc2)C(=O)N[C@@H](CCCCN)C(N)=O)NC(=O)[C@H](CC(C)C)NC1=O [compound 4] (H-CWKK(Ac)LCFK-NH2; disulfide 1-6; N-terminus and C-terminus assumed) | 24 | effectively reduced the protein level of endogenous p53 and p21 | dose-dependent inhibition |
